Source: patent US9745339B2 (GRAFFINITY PHARMACEUTICALS GMBH, priority 2012, dated 2017)

Key:
Bevacizumab [1] = molecular target: T1, Bevacizumab (Homo sapiens, UniProt P01857); assay: Microtiter plate chromatography of resins: binding and elution of Bevacizumab; settings: for Bevacizumab Bound: fraction of injected protein bound, 0.5 mg/ml IgG in PBS pH 7.3, ligand immobilized on SEPHAROSE 4 FF; for Bevacizumab Yield: mass eluted (glycine pH 2.5) / mass injected
T1 construct: 0.5 mg/ml IgG in PBS pH 7.3; ligand immobilized on SEPHAR; Bevacizumab Yield; other: mass eluted (glycine pH 2.5) / mass injected; kd (dissociation constant, Langmuir isotherm); other: Bevacizumab 0.05-5 mg/ml in PBS pH 7.3, 25° C., at least 3 h; qm (maximum capacity); other: mg Bevacizumab per ml of resin; Langmuir isotherm; t0; fused on or other part: Humanized anti-VEGF-A VH domain joined N-terminally to the IGHG1 constant region (engineered, no UniProt entry)
In short: (§1)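 About 30 μl packed resin columns loaded with 3.3 cv IgG at 0.5 mg ml^−1 in PBS or undiluted HCP, washed with 5 cv PBS, eluted with 5 cv glycine pH 2.5. Protein in fractions by Bradford. Bound fraction = (injected − flowthrough)/injected; yield = eluted/injected; selectivity = Bevacizumab bound fraction / HCP bound fraction, truncated beyond 10.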

Tocilizumab = assay: Microtiter plate chromatography of resins: binding and elution of Tocilizumab; settings: fraction of injected protein bound; 0.5 mg/ml IgG in PBS pH 7.3
In short: (§2)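 About 30 μl resin columns loaded with 3.3 cv IgG at 0.5 mg ml^−1 in PBS (or undiluted HCP), washed with 5 cv PBS, eluted with 5 cv glycine pH 2.5. Fractions quantified by Bradford; bound fraction = (mi−mft)/mi, yield = me/mi.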

Palivizumab = assay: Microtiter plate chromatography of resins: binding and elution of Palivizumab; settings: fraction of injected protein bound; 0.5 mg/ml IgG in PBS pH 7.3
In short: as §2

Cetuximab = assay: Microtiter plate chromatography of resins: binding and elution of Cetuximab; settings: fraction of injected protein bound; 0.5 mg/ml IgG in PBS pH 7.3
In short: as §2

[2] = test system: poly-IgG from human serum (h-poly-IgG); assay: Microtiter plate chromatography of resins: binding and elution of human poly-IgG; settings: fraction of injected protein bound; 0.5 mg/ml IgG in PBS pH 7.3
In short: as §2

host cell proteins (HCP) = assay: Microtiter plate chromatography of resins: binding of host cell proteins; design: species or system CHO cell culture; settings: fraction of injected undiluted host cell proteins bound
In short: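 Undiluted HCP-containing flowthrough from protein A chromatography of CHO serum-free culture was loaded onto ~30 µl packed resin columns in microtiter-plate format. Columns were washed with 5 cv PBS and eluted with glycine pH 2.5, and fractions were quantified by Bradford. Bound fraction = (injected − flowthrough mass)/injected mass.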

Bevacizumab [3] = molecular target: T1, Bevacizumab; assay: Langmuir isotherms by batch adsorption; format: binding; settings: for Kd: Bevacizumab 0.05-5 mg/ml in PBS pH 7.3, 25° C., at least 3 h, read-out: kd (dissociation constant, Langmuir isotherm) (converted); for qm (maximum capacity): mg Bevacizumab per ml of resin, Langmuir isotherm
Protocol: Experiments were performed with Bevacizumab as antibody. Parameters of Langmuir isotherms for purified antibody were determined by batch adsorption experiments in 96-well microtiter plates. In each well, 10 μl of sorbent slurry (50% v/v) were mixed with 100 μl of protein solution. Initial concentrations varied from 0.05-5 mg/ml in phosphate-buffered saline (0.15 M NaCl, 20 mM phosphate buffer, pH 7.3; PBS). Reactions were agitated vigorously at 25° C. for at least 3 h. Afterwards, antibody concentration in the supernatants were measured by Bradford assay. Data was evaluated by direct fitting of the values with the Langmuir isotherm equation (1).
Parameters of Langmuir isotherms, i.e. dissociation constants Kd and maximum capacities qm, were determined from the measured concentrations in the supernatants. Parameters were estimated by numerical fitting of the model equation derived by Chase (1)

Bevacizumab [4] = molecular target: T1, Bevacizumab; assay: Uptake kinetics by batch adsorption (time-scale of binding); settings: time after which 80% of equilibrium saturation occurred; 0.75 mg/ml Bevacizumab in PBS, 25° C.
Protocol: Uptake kinetics was investigated similarly by batch adsorption in 96-well filter plates. Again, 10 μl of sorbent slurry (50% v/v) were mixed with 100 μl of protein solution. […] Reactions were agitated vigorously at 25° C. for up to 80 min. Supernatants were separated rapidly by spinning through filters after 2.5, 5, 10, 20, 40 and 80 minutes and sampled for analysis. Concentrations of the antibody were analyzed by Bradford assay.
For determination of t0.8, measured concentrations in the supernatant were interpolated by fitting of double-exponentials and values of t0.8 were read out from graphs (2).

[5] = Alkaline stability of ligands in 0.5 M sodium hydroxide; format: physicochemical; settings: 25° C., 8 days, hydrolysis monitored by LC-MS, read-out: t0.5 (half-life) (converted)
Protocol: A subset of ligands from Example 1 was tested for its alkaline stability. Ligands were treated with 0.5 M sodium hydroxide at 25° C. for 8 days. Hydrolysis was monitored by LC-MS analysis.

Bevacizumab [6] = assay: Microtiter plate chromatography of resins: binding and elution of Bevacizumab; settings: fraction of bound Bevacizumab divided by fraction of bound HCP; truncated for values beyond 10
In short: as §1

## CCc1nc2cc(C(=O)Nc3nnc(-c4ccco4)s3)ccc2n1CCCN [Ligand L44, 1-(3-Amino-1-propyl)-2-ethylbenzimidazole-5-carboxylic acid N-[5-(2-furyl)-1,3,4-thiadiazol-2-yl] amide]
Bevacizumab [1]
  Bevacizumab Bound: 100%
  Bevacizumab Yield: 88%
Tocilizumab
  Tocilizumab Bound: 100%
Palivizumab
  Palivizumab Bound: 100%
Cetuximab
  Cetuximab Bound: 100%
[2]
  h-poly-IgG Bound: 100%
Host cell proteins (HCP)
  HCP Bound: 16%
Bevacizumab [3]
  Kd: 265 µM
  qm (maximum capacity): 53 mg/mL
Bevacizumab [4]
  t0.8 (time-scale of binding): 7.7 min
[5]
  half-life: > 41.6 days

## NCCCn1cnc2cc(NC(=O)c3cn4ccsc4n3)ccc21 [Ligand L30, 1-(3-Amino-1-propyl)-5-[(imidazo-[2,1-b]thiazol-6-yl)carboxamido]benzimidazole]
Bevacizumab [1]
  Bevacizumab Bound: 100%
  Bevacizumab Yield: 100%
Tocilizumab
  Tocilizumab Bound: 100%
Palivizumab
  Palivizumab Bound: 93%
Cetuximab
  Cetuximab Bound: 100%
[2]
  h-poly-IgG Bound: 94%
Host cell proteins (HCP)
  HCP Bound: 21%
Bevacizumab [3]
  Kd: 358 µM
  qm (maximum capacity): 40 mg/mL
Bevacizumab [4]
  t0.8 (time-scale of binding): 9.3 min
[5]
  half-life: 37.6 days

## Cc1nc2cc(C(=O)Nc3nc(-c4ccccn4)cs3)ccc2n1CCCN [Ligand L42, 1-(3-Amino-1-propyl)-2-methylbenzimidazole-5-carboxylic acid N-[4-(2-pyridyl)thiazol-2-yl] amide]
Bevacizumab [1]
  Bevacizumab Bound: 100%
  Bevacizumab Yield: 98%
Tocilizumab
  Tocilizumab Bound: 100%
Palivizumab
  Palivizumab Bound: 97%
Cetuximab
  Cetuximab Bound: 100%
[2]
  h-poly-IgG Bound: 100%
Host cell proteins (HCP)
  HCP Bound: 13.5%
Bevacizumab [3]
  Kd: 318 µM
  qm (maximum capacity): 45 mg/mL
Bevacizumab [4]
  t0.8 (time-scale of binding): 7.6 min
[5]
  half-life: > 41.6 days

## NCCCn1cnc2cc(C(=O)Nc3nncs3)ccc21 [Ligand L13, 1-(3-Amino-1-propyl)benzimidazole-5-carboxylic acid N-(1,3,4-thiadiazol-2-yl) amide]
Bevacizumab [1]
  Bevacizumab Bound: 100%
  Bevacizumab Yield: 98%
Tocilizumab
  Tocilizumab Bound: 100%
Palivizumab
  Palivizumab Bound: 97%
Cetuximab
  Cetuximab Bound: 100%
[2]
  h-poly-IgG Bound: 97%
Host cell proteins (HCP)
  HCP Bound: 21%
Bevacizumab [3]
  qm (maximum capacity): 37 mg/mL
Bevacizumab [4]
  t0.8 (time-scale of binding): 7.0 min
[5]
  half-life: > 41.6 days

## COc1nc2cc(C(=O)Nc3nnc(-c4ccco4)s3)ccc2n1CCCN [Ligand L45, 1-(3-Amino-1-propyl)-2-methoxybenzimidazole-5-carboxylic acid N-[5-(2-furyl)-1,3,4-thiadiazol-2-yl] amide]
Bevacizumab [1]
  Bevacizumab Bound: 100%
  Bevacizumab Yield: 93%
Bevacizumab [6]
  Selectivity: 6.7
Tocilizumab
  Tocilizumab Bound: 100%
Palivizumab
  Palivizumab Bound: 100%
Cetuximab
  Cetuximab Bound: 100%
[2]
  h-poly-IgG Bound: 100%
Host cell proteins (HCP)
  HCP Bound: 15%
[5]
  half-life: > 41.6 days

## COc1ccc(NC(=O)c2nn(CCCN)c3ccccc23)cc1C(N)=O [Ligand L04, 1-(3-Amino-1-propyl)indazole-3-carboxylic acid N-(3-carbamoyl-4-methoxyphenyl) amide]
Bevacizumab [1]
  Bevacizumab Bound: 100%
  Bevacizumab Yield: 98%
Bevacizumab [6]
  Selectivity: 3.6
Tocilizumab
  Tocilizumab Bound: 100%
Palivizumab
  Palivizumab Bound: 85%
Cetuximab
  Cetuximab Bound: 100%
[2]
  h-poly-IgG Bound: 100%
Host cell proteins (HCP)
  HCP Bound: 28%
[5]
  half-life: > 41.6 days
